This passage reports IC50 results from patent US7417041B2, “Imidazopyrimidines as transforming growth factor (TGF) inhibitors” (Pfizer Inc., priority 2003, dated 2008).

This experiment addresses T1, TβRI (Homo sapiens, UniProt P36897).
T1 construct: using either the kinase domain of ALK5 with Smad3 as substrate; GST
T1 sequence (P36897 205-495 limits assumed): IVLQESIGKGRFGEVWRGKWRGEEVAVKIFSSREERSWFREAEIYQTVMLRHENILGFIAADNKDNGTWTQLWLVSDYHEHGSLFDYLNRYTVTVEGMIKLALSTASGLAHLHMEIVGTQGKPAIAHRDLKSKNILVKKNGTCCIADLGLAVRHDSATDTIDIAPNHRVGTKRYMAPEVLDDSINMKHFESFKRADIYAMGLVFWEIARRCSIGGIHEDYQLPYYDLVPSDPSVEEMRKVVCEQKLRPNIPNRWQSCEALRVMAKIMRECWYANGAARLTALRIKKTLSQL
As to the kind of experiment: ALK-5 (TβRI) kinase assay. Type of experiment: biochemical. Conditions: read-out: in vitro IC50 value against TβRI. As for the experimental part: ALK-5 (TβRI) Kinase Assay Protocol
The kinase assays were performed with 65 nM GST-ALK5 and 84 nM GST-Smad3 in 50 mM HEPES, 5 mM MgCl2, 1 mM CaCl2, 1 mM dithiothreitol, and 3_M ATP. Reactions were incubated with 0.5_Ci of [33 P]ATP for 3 h at 30° C. Phosphorylated protein was captured on P-81 paper (Whatman, Maidstone, England), washed with 0.5% phosphoric acid, and counted by liquid scintillation. Alternatively, Smad3 or Smad1 protein was also coated onto FlashPlate Sterile Basic Microplates (PerkinElmer Life Sciences, Boston, Mass.). Kinase assays were then performed in Flash-Plates with same assay conditions using either the kinase domain of ALK5 with Smad3 as substrate or the kinase domain of ALK6 (BMP receptor) with Smad1 as substrate. Plates were washed three times with phosphate buffer and counted by TopCount (Packard Bio-science, Meriden, Conn.). (Laping, N. J. et al. Molecular Pharmacology 62:58-64 (2002)).

The IC50 is the concentration that inhibits the measured activity by half. For `Cc1cccc(-c2c(-c3ccc4nnn(C)c4c3)nc3ncccn23)n1` [Example 15, 1-Methyl-6-[3-(6-methyl-pyridin-2-yl)-imidazo[1,2-a]pyrimidin-2-yl]-1H-benzotriazole], the IC50 stood at 0.253 µM.
